Common to all, as to test: NCI anticancer screen, dose series, 48 h
Experiment [1] deals with DMS 273 small cell lung.
In experiment [2] the test system is HCC-2998 colon.
In experiment [3] the test system is HOP-92 NSCLC.
The test system of experiment [4] is KM20L2 colon.
Experiment [5] concerns LXFL 529 NSCLC.
Experiment [6] concerns M14 melanoma.
For experiment [7], the system named is M19-MEL melanoma.
In experiment [8] the test system is NCI-H226 lung.
Experiment [9] relates to NCI-H460 lung.
Experiment [10] concerns SNB-78 CNS.
In experiment [11] the test system is UACC-257 melanoma.
Experiment [12] relates to A498 renal.
For experiment [13], the system named is MDA-MB-231 breast.

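In this assay, cells in 96-well plates receive the compound at five concentrations for 48 hours. Endpoints are linearly interpolated between the surrounding concentrations. Definition used: TGI = concentration required for complete inhibition of growth.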 Where a SMILES comes first, the peptide text is derived from it.

In the case of `CC(=O)C(CN(C)C)C(c1ccccc1)c1c(O)c2ccccc2oc1=O` (stereo not given), the TGI in [1], in experiment [2], in experiment [3], in experiment [4], in [5] and in [6] was over 100 µM throughout. For the same molecule, the TGI in experiment [7], in [8], in experiment [9], in [10] and in experiment [11] was over 100 µM throughout.
For `O=S(=O)(c1ccccc1)n1cc(C[P+](c2ccccc2)(c2ccccc2)c2ccccc2)c2ccccc21`, the TGI in experiment [12] stood at 30 µM; in experiment [1] it was 10.2 µM; in experiment [2], 15.7 µM; in experiment [3], 5.53 µM; in experiment [4], 16.6 µM; in [5], 8.26 µM. Besides, the TGI in experiment [6] is 7.04 µM; in experiment [7], 15.9 µM; in experiment [8], 18.1 µM; in [9] it was 15.3 µM; in experiment [10], 20.7 µM.
Take `NCCCCC(=O)c1cccnc1`: the TGI in experiment [12], in experiment [1], in experiment [3], in [4], in experiment [5] and in experiment [6] was over 100 µM in each case. Besides, the TGI in experiment [7], in experiment [9], in experiment [10] and in [11] was over 100 µM throughout.
Turning to `c1cncc(O[Si](Oc2cccnc2)(Oc2cccnc2)Oc2cccnc2)c1`, the TGI in [1], in experiment [2], in experiment [6], in [7], in experiment [8] and in [9] was over 100 µM in each case. For the same molecule, the TGI in experiment [10] and in experiment [11] was over 100 µM each time.
Take `COc1ccccc1N=N/C(=N\NC(=O)c1ccc(C)cc1)c1ccc(N(CCC#N)CCC#N)cc1C`: the TGI is over 100 µM in experiment [12]; over 100 µM in experiment [2]; over 100 µM in experiment [3]; over 100 µM in experiment [6]; over 100 µM in experiment [13]; 28.5 µM in experiment [8]. Also, the TGI in experiment [9] and in experiment [11] was over 100 µM each time.
On to `O=C(NC(Nc1ccc(F)cc1)(C(F)(F)F)C(F)(F)F)C(C(F)(F)F)C(F)(F)F`, for which the TGI in experiment [12], in experiment [2], in [3], in experiment [6], in experiment [13] and in [8] was over 100 µM throughout. In addition, the TGI in experiment [9] and in experiment [11] was over 100 µM in each case.
For `O=C(NCCN1CCCCC1)c1ccc(I)cc1`, the TGI in experiment [12] was 69.3 µM; in experiment [2], over 100 µM; in experiment [3], over 100 µM; in experiment [6], over 100 µM; in [13], over 100 µM; in experiment [8], over 100 µM. For the same molecule, the TGI in experiment [9] and in experiment [11] was over 100 µM in each case.
As to `CCCCCCCCCCCCOc1ccc(/C=C/C2=[N+](CCCl)CCO2)cc1`, the TGI was over 100 µM in [12]; over 100 µM in [2]; 86.5 µM in [3]; over 100 µM in experiment [6]; over 100 µM in experiment [13]; over 100 µM in experiment [8]. Also, the TGI in experiment [9] and in experiment [11] was over 100 µM in each case.
Consider `CC(C)C(C/C=C1/CC(CO)(COC(=O)c2ccccc2)OC1=O)C(C)C` (stereo not given), for which the TGI in experiment [12] was determined as 39.7 µM; in experiment [2], 40.8 µM; in [3], 35.8 µM; in experiment [6], 32.2 µM; in experiment [13] it was 32.8 µM; in experiment [8], 32.4 µM. Moreover, the TGI worked out at 45.7 µM in [9] and 62.4 µM in experiment [11].
In the case of `CN1C=Cc2nccc3cc4c(c1c23)OCO4`, the TGI in experiment [12] was 20.5 µM; in experiment [2], 30.4 µM; in experiment [3] it was over 68.5 µM; in [6], 11.7 µM; in [13], 29 µM; in experiment [8], 43.5 µM. The TGI is over 33.1 µM in experiment [9] and 16.9 µM in experiment [11].
For `CC(C)CC(NC(=O)C(Cc1ccccc1)NC(=O)C(Cc1c[nH]c2ccccc12)NC(=O)CNC(=O)C(N)Cc1ccc(O)cc1)C(=O)O` (stereo not given) (H-YGWFL-OH; configuration not given here), the TGI is 96 µM in experiment [12]; 60.2 µM in experiment [2]; 42.1 µM in experiment [3]; over 100 µM in [6]; over 100 µM in experiment [13]; over 100 µM in experiment [8]. Also, the TGI in [9] and in [11] was over 100 µM in each case.
In the case of `CC1=CC(C)C(C)N(CCNS(=O)(=O)c2ccc(C)cc2)c2ccccc21` (stereo not given), the TGI in experiment [12] was determined as 19.2 µM; in [2] it was 30.2 µM; in [3], 36.1 µM; in experiment [6], 17.5 µM; in [13], 24.2 µM; in experiment [8] it was 17.8 µM. The TGI in experiment [9] worked out at 19.2 µM; in experiment [11] it was 34.2 µM.
Take `O=C(O)C1(Cc2ccc3c(c2)CCC3)Cc2ccccc2C1`: the TGI in experiment [12], in [2], in experiment [3], in experiment [6], in experiment [13] and in experiment [8] was over 100 µM in each case. In addition, the TGI in experiment [9] and in experiment [11] was over 100 µM in each case.
Take `C[C@@H]1C2=CC[C@@]3(C)C(CCC3[C@H](C)[C@H]3C[C@@]4(C)O[C@@](c5cccnc5)(O3)OC4(C)C)[C@@H]2C2OC2[C@@]12CCC(=O)O2` (stereo not given in full): the TGI in experiment [12] is over 100 µM; in experiment [1], over 100 µM; in experiment [2], over 100 µM; in experiment [3], 76.9 µM; in experiment [4] it was 96.2 µM; in [5], over 100 µM. Besides, the TGI in experiment [6] was 60.6 µM; in experiment [7], over 100 µM; in experiment [9], over 100 µM; in experiment [10], over 100 µM; in experiment [11], over 100 µM.
For `Cc1cnc2c(c1)C(=O)C1=C(OC(C)(C)CC1O)C2=O` (stereo not given), the TGI worked out at 25.4 µM in experiment [1]; 32.9 µM in [2]; 30.5 µM in [3]; 32.5 µM in experiment [4]; 29.9 µM in experiment [5]; 30.5 µM in experiment [6]. Besides, the TGI was 9.86 µM in experiment [7], 37.5 µM in experiment [8], 23.9 µM in experiment [9] and 27 µM in [11].
Turning to `O=C1NC(=O)/C(=C/c2ccc(S(=O)(=O)N/N=C\C(O)C(O)C(O)C(O)CO)cc2)N1` (stereo not given), the TGI in [12], in experiment [2], in experiment [3], in [6], in [13] and in experiment [8] was over 100 µM throughout. The TGI in [9] and in [11] was over 100 µM throughout.
`CCCCOCc1cc(CN2CCN(C)CC2)c(O)c2ncccc12`: the TGI in [12] was 78.9 µM; in experiment [1], 40.2 µM; in experiment [2], 90.2 µM; in [3], over 100 µM; in experiment [4], 73.7 µM; in [5], over 100 µM. In addition, the TGI is 90 µM in [6]; over 100 µM in experiment [7]; 88.4 µM in [8]; over 100 µM in experiment [9]; over 100 µM in experiment [10]; over 100 µM in experiment [11].
With `COc1cc(Nc2nnc3n2S(=O)(=O)c2cc(C)c(Cl)cc2S3)cc(OC)c1`, the TGI in [12] is 85.8 µM; in experiment [2], over 100 µM; in [3], 27 µM; in [6], over 100 µM; in [13] it was 74.5 µM; in experiment [8], 55.1 µM. In addition, the TGI in experiment [9] and in experiment [11] was over 100 µM in each case.
On to `COC(=O)[C@@H](Cc1ccccc1)N1O[C@]12CCCC[C@@H]2NC(=O)OC(C)(C)C` (stereo not given in full), for which the TGI in experiment [12] was over 100 µM; in experiment [2], over 100 µM; in experiment [3], 55.5 µM; in experiment [6], 50.9 µM; in [13], 42.4 µM; in [8], over 100 µM. Further, the figures for the TGI in [9] and in experiment [11] were 90.6 µM and over 100 µM, respectively.
In the case of `COC(=O)C1=CN(C2CCCCC2)C2(c3ccccc3)c3ccccc3C(=O)OC(=O)C12` (stereo not given), the TGI in [12], in [2], in experiment [3], in experiment [6], in experiment [13] and in experiment [8] was over 100 µM throughout. The TGI in [9] and in experiment [11] was over 100 µM throughout.
For `Oc1cccc2cc(Br)cnc12`, the TGI in experiment [12] is over 85 µM; in experiment [2], 96.9 µM; in experiment [3] it was 74.2 µM; in experiment [6], 51.8 µM; in experiment [13] it was over 47.1 µM; in experiment [8], over 100 µM. Also, the TGI was over 70.8 µM in [9] and 27.3 µM in experiment [11].
For `N#Cc1c(O)cc(=O)n2c1[nH]c1ccccc12`, the TGI in [12], in [2], in [3], in experiment [6], in [13] and in experiment [8] was over 100 µM each time. The TGI in experiment [9] and in experiment [11] was over 100 µM in each case.
On to `CC1(C)OCC([C@H]2CC23SCCCS3)O1` (stereo not given in full), for which the TGI in [12], in experiment [1], in experiment [3], in experiment [4], in experiment [5] and in experiment [6] was over 100 µM throughout. Moreover, the TGI in [8], in experiment [9], in experiment [10] and in [11] was over 100 µM each time.
`COC(=O)c1c[nH]c2c1-c1cc(C(=O)OCc3ccccc3)n(S(=O)(=O)c3ccc(C)cc3)c1C(=O)C2=O`: the TGI is 3.16 µM in experiment [12]; 1.9 µM in [2]; 1.29 µM in [3]; 0.289 µM in experiment [6]; 0.401 µM in experiment [13]; 0.889 µM in experiment [8]. The TGI in [9] came out at 2.69 µM; in experiment [11], 0.311 µM.
`Nc1nc2ccc(OCC(O)CN3CCCCC3)cc2[n+]([O-])n1` (stereo not given): the TGI in experiment [12], in experiment [2], in experiment [3], in experiment [6], in [13] and in experiment [8] was over 100 µM in each case. Further, the TGI in [9] and in experiment [11] was over 100 µM in each case.
Consider `C=CC(Br)(CBr)CCC(Br)C(C)(C)Cl` (stereo not given), for which the TGI was 9.46 µM in [12]; 12.8 µM in experiment [2]; 4.32 µM in experiment [3]; 14.6 µM in experiment [6]; 6.95 µM in experiment [13]; 52.9 µM in experiment [8]. Further, the TGI in experiment [9] was 6.06 µM; in experiment [11], 10.6 µM.
Turning to `Cc1cc(=O)[nH]c(NNC(C#N)c2c(O)ccc3ccccc23)n1` (stereo not given), the TGI in experiment [1] was found to be 18.7 µM; in [3], 79.6 µM; in [4], 95.7 µM; in experiment [5], 47 µM; in experiment [6], 15.6 µM; in [7], 25 µM. Further, the TGI in experiment [8] was 17.6 µM; in [9], 17.2 µM; in experiment [10], over 100 µM; in experiment [11], 19.8 µM.
`CC1(S)CC2C(CC1Sc1ccccc1)C2(C)C` (stereo not given): the TGI in [1], in [2], in experiment [3], in experiment [5], in experiment [6] and in experiment [7] was over 100 µM in each case. Besides, the TGI in experiment [8], in experiment [9], in experiment [10] and in [11] was over 100 µM each time.
For the molecule `CC(=O)c1cccc(NC(=O)C(=O)C(c2cnc3ccc([N+](=O)[O-])cc3n2)[N+](=O)[O-])c1` (stereo not given), the TGI in [12], in experiment [2], in experiment [3], in [6], in [13] and in experiment [8] was over 100 µM in each case. The TGI in experiment [9] and in experiment [11] was over 100 µM in each case.
